# In US20080312220A1, “Oxadiazole Derivatives with Crth2 Receptor Activity” (priority 2005, published 2008):
# What was measured:
# [1] = biological target: T1, human CRTH2 receptor (Homo sapiens, UniProt Q9Y5Y4); assay: Receptor binding assay, competition with [3H]PGD2 on whole transfected cells; conditions: competition with 0.1 nM [3H]PGD2, whole cells expressing CRTH2
# T1 construct: expressed in transfected cells; host or cells: COS-7 cells, transient transfection (calcium phosphate)
# T1 sequence (Q9Y5Y4 1-395): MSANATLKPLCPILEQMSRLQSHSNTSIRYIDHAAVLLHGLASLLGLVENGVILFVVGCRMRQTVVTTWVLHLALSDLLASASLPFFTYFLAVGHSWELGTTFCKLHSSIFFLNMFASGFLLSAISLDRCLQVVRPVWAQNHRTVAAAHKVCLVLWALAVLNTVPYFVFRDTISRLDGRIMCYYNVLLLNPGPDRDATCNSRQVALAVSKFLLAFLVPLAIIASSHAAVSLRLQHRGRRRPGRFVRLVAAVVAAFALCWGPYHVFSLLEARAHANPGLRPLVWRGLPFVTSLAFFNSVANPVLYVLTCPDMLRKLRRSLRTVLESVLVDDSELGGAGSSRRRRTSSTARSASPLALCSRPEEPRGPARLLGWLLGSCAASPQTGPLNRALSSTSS
# Source text: (§1) Generation/origin of the cDNA Constructs. The coding sequence of the human CRTH2 receptor (genbank accession no NM_004778) was amplified by PCR from a human hippocampus cDNA library and inserted into the pcDNA3.1(+) expression vector (invitrogen) via 5′ HindIII and 3′ EcoRI. To generate a CRTH2-Renilla luciferase (CRTH2-Rluc) fusion protein, the CRTH2 coding sequence without a STOP codon and Rluc were amplified, fused in frame by PCR and subcloned into the pcDNA3.1(+)Zeo expression vector (invitrogen). Human β-arrestin2 (β-arr2) N-terminally tagged with GFP^2 (βarr2-GFP^2) and Renilla luciferase were purchased from BioSignal Packard Inc, (Montreal, Canada). The sequence identity of the construct was verified by restriction endonuclease digests and sequencing in both directions on an ABI Prism (Applied Biosystems, Foster City, Calif.).
# (§2) Cell Culture and Transfection. COS-7 cells were grown in Dulbecco's modified Eagle's medium (DMEM) 1885 supplemented with 10% fetal bovine serum, 100 units/ml penicillin, […], and kept at 37° C. in a 10% CO2 atmosphere. HEK293 cells were maintained in Minimum Essential medium (MEM) supplemented with 10% (v/v) heat inactivated fetal calf serum (HIFCS), 2 mM Glutamax™-I, 1% non essential amino acids (NEAA), 1% sodium pyruvate and 10 μg/ml gentamicin. For binding experiments, COS7 cells were transiently transfected with the CRTH2 receptor using a calcium phosphate-DNAcoprecipitation method with the addition of chloroquine (as described by Holst et al., 2001↓). To perform the functional Bioluminescence Resonance Energy Transfer (BRET) assays, a HEK293 cell clone stably expressing Parr2-GFP^2 and CRTH2-Rluc was generated (CRTH2-HEK293 cells).
# Binding assay. 24 h after transfection COS-7 cells were seeded into 96 well plates at a density of 30.000 cells/well. Competition binding experiments on whole cells were then performed about 18-24 h later using 0.1 nM [^3H]PGD2 (NEN, 172 Ci/mmol) in a binding buffer consisting of HBSS (GIBCO) and 10 mM HEPES. Competing ligands were diluted in DMSO which was kept constant at 1% (v/v) of the final incubation volume. Total and nonspecific binding were determined in the absence and presence of 10 μM PGD2. Binding reactions were routinely conducted for 3 h at 4° C. and terminated by 2 washes (100 μl each) with ice cold binding buffer. Radioactivity was determined by liquid scintillation counting in a TOPCOUNTER (Packard) following over night incubation in Microscint 20. Stable HEK293 cells were seeded at a density of 30.000 cells/well 18-24 h prior to the binding assay which was performed essentially as described for COS7 cells above. Determinations were made in duplicates.
# (§3) Curve analysis was performed with the GraphPadPrism software 3.0 (Graphpad Prism Inc., San Diego, USA) and IC50 values were calculated as a measure of the antagonistic potencies.
# [2] = biological target: T2, human CRTH2-Rluc (Homo sapiens, UniProt Q9Y5Y4); assay: Functional antagonist BRET assay (CRTH2-Rluc / GFP2-β-arrestin2 in HEK293 cells); type: cell-based; conditions: HEK293 cells stably expressing CRTH2-Rluc and GFP2-β-arr2, read-out: Antag. IC50
# T2 construct: expressed in transfected cells; host or cells: HEK293 cell clone stably expressing βarr2-GFP2 and CRTH2-Rluc
# T2 sequence (Q9Y5Y4 1-395): T1 sequence (Q9Y5Y4 1-395)
# Source text: as §1, §2
# BRET assay. Functional BRET assays were performed on HEK293 cells stably expressing human CRTH2-Rluc and GFP^2-β-arr2. Prior to their use in the BRET assay cells were detached and re-suspended in D-PBS with 1000 mg/L L-Glucose at a density of 2×10^6 cells/mL. DeepBlueC™ was diluted to 50 μM in D-PBS with 1000 mg/L L-Glucose (light sensitive). 100 μL of cell suspension was transferred to wells in a 96-well microplate (white OptiPlate) and placed in the Mithras LB 940 instrument (BERTHOLD TECHNOLOGIES, Bad Wildbad, Germany). 12 μL/well agonist was then injected by injector 1 and 10 μL/well DeepBlueC™ was injected simultaneously by injector 2. Five seconds after the injections the light output from the well was measured sequentially at 400 nm and 515 nm, and the BRET signal (mBRET ratio) was calculated by the ratio of the fluorescence emitted by GFP^2-β-arr2 (515 nm) over the light emitted by the receptor-Rluc (400 nm). Antagonists were added before placing the microplates into the Mithras LB 940 and allowed to incubate for 15 minutes prior to the addition of agonist and DeepBlueC™. Compounds were dissolved in DMSO and the final DMSO concentration was kept constant at 1% in the assay.
# as §3
IC50 [1] [nM],IC50 [2] [nM],SMILES
< 500,< 500,"O=C(O)COc1ccc(Br)cc1-c1nc(C2(c3ccccc3)CCCCC2)no1 [Example D3, {4-Bromo-2-[3-(1-phenyl-cyclohexyl)-[1,2,4]oxadiazol-5-yl]-phenoxy}-acetic acid]"
< 500,< 500,"O=C(O)COc1ccc(Br)cc1-c1nc(C2(c3c(Cl)cccc3Cl)CC2)no1 [Example D13, (4-Bromo-2-{3-[1-(2,6-dichloro-phenyl)-cyclopropyl]-[1,2,4]oxadiazol-5-yl}-phenoxy)-acetic acid]"
< 500,< 500,"CC(C)C(=O)N1CCC(c2ccccc2)(c2noc(-c3cc(Br)ccc3OCC(=O)O)n2)CC1 [Example D8, {4-Bromo-2-[3-(1-isobutyryl-4-phenyl-piperidin-4-yl)-[1,2,4]oxadiazol-5-yl]-phenoxy}-acetic acid]"
< 500,500 to 5000,"O=C(O)COc1ccc(Br)cc1-c1nc(C2(c3ccccc3)CCNCC2)no1 [Example D5, {4-Bromo-2-[3-(4-phenyl-piperidin-4-yl)-[1,2,4]oxadiazol-5-yl]-phenoxy}-acetic acid]"
< 500,< 500,"CS(=O)(=O)N1CCC(c2ccc(F)cc2)(c2noc(-c3cc(Br)ccc3OCC(=O)O)n2)CC1 [Example D19, (4-Bromo-2-{3-[4-(4-fluoro-phenyl)-1-methanesulfonyl-piperidin-4-yl]-[1,2,4]oxadiazol-5-yl}-phenoxy)-acetic acid]"
< 500,< 500,"CS(=O)(=O)N1CCC(c2ccccc2)(c2noc(-c3cc(Br)ccc3OCC(=O)O)n2)CC1 [Example D10, {4-Bromo-2-[3-(1-methanesulfonyl-4-phenyl-piperidin-4-yl)-[1,2,4]oxadiazol-5-yl]-phenoxy}-acetic acid]"
< 500,< 500,"CCC(=O)N1CCC(c2ccccc2)(c2noc(-c3cc(Br)ccc3OCC(=O)O)n2)CC1 [Example D7, {4-Bromo-2-[3-(4-phenyl-1-propionyl-piperidin-4-yl)-[1,2,4]oxadiazol-5-yl]-phenoxy}-acetic acid]"
< 500,< 500,"O=C(O)COc1ccc(Br)cc1-c1nc(C2(c3ccccc3)CCN(S(=O)(=O)C3CC3)CC2)no1 [Example D15, {4-Bromo-2-[3-(1-cyclopropanesulfonyl-4-phenyl-piperidin-4-yl)-[1,2,4]oxadiazol-5-yl]-phenoxy}-acetic acid]"
< 500,< 500,"O=C(O)COc1ccc(Br)cc1-c1nc(C2(c3ccccc3)CCN(C(=O)C3CC3)CC2)no1 [Example D12, {4-Bromo-2-[3-(1-cyclopropanecarbonyl-4-phenyl-piperidin-4-yl)-[1,2,4]oxadiazol-5-yl]-phenoxy}-acetic acid]"
< 500,< 500,"O=C(O)COc1ccc(Br)cc1-c1nc(C2(c3ccccc3)CCN(C(=O)CO)CC2)no1 [Example D18, (4-Bromo-2-{3-[1-(2-hydroxy-acetyl)-4-phenyl-piperidin-4-yl]-[1,2,4]oxadiazol-5-yl}-phenoxy)-acetic acid]"
< 500,< 500,"C[C@H](Oc1ccc(Br)cc1-c1nc(C2(c3ccc(F)cc3)CC2)no1)C(=O)O [Example D21, (S)-2-(4-Bromo-2-{3-[1-(4-fluoro-phenyl)-cyclopropyl]-[1,2,4]oxadiazol-5-yl}-phenoxy)-propionic acid]"
< 500,< 500,"O=C(O)COc1ccc(Br)cc1-c1nc(C2(c3ccc(F)cc3)CC2)no1 [Example D6, (4-Bromo-2-{3-[1-(4-fluoro-phenyl)-cyclopropyl]-[1,2,4]oxadiazol-5-yl}-phenoxy)-acetic acid]"
< 500,< 500,"COC(=O)N1CCC(c2ccccc2)(c2noc(-c3cc(Br)ccc3OCC(=O)O)n2)CC1 [Example D16, 4-[5-(5-Bromo-2-carboxymethoxy-phenyl)-[1,2,4]oxadiazol-3-yl]-4-phenyl-piperidine-1-carboxylic acid methyl ester]"
< 500,< 500,"O=C(O)COc1ccc(Br)cc1-c1nc(C2(c3ccccc3)CC2)no1 [Example D1, {4-Bromo-2-[3-(1-phenylcyclopropyl)-[1,2,4]oxadiazol-5-yl]phenoxy}acetic acid]"
< 500,< 500,O=C(O)COc1ccc(Br)cc1-c1nc(C(c2ccccc2)N2CCOCC2)no1 (stereo not drawn) [Example D4]
< 500,< 500,"O=C(O)COc1ccc(Br)cc1-c1nc(C2(c3ccccc3)CCC2)no1 [Example D14, {4-Bromo-2-[3-(1-phenyl-cyclobutyl)-[1,2,4]oxadiazol-5-yl]-phenoxy}-acetic acid]"
< 500,< 500,"CC(=O)N1CCC(c2ccccc2)(c2noc(-c3cc(Br)ccc3OCC(=O)O)n2)CC1 [Example D2, {2-[3-(1-Acetyl-4-phenyl-piperidin-4-yl)-[1,2,4]oxadiazol-5-yl]-4-bromo-phenoxy}-acetic acid]"
< 500,< 500,"O=C(O)COc1ccc(Br)cc1-c1nc(C(c2ccc(F)cc2)N2CCS(=O)(=O)CC2)no1 (stereo not drawn) [Example D20, (4-Bromo-2-{3-[(1,1-dioxo-1lambda*6*-thiomorpholin-4-yl)-(4-fluoro-phenyl)-methyl]-[1,2,4]oxadiazol-5-yl}-phenoxy)-acetic acid]"
< 500,< 500,"O=C(O)COc1ccc(Br)cc1-c1nc(C2(c3ccc(Cl)cc3Cl)CC2)no1 [Example D9, (4-Bromo-2-{3-[1-(2,4-dichloro-phenyl)-cyclopropyl]-[1,2,4]oxadiazol-5-yl}-phenoxy)-acetic acid]"

SMILES,IC50 [1] [nM],IC50 [2] [nM]
"CC(=O)OCC(=O)N1CCC(c2ccccc2)(c2noc(-c3cc(Br)ccc3OCC(=O)O)n2)CC1 [Example D17, (2-{3-[1-(2-Acetoxy-acetyl)-4-phenyl-piperidin-4-yl]-[1,2,4]oxadiazol-5-yl}-4-bromo-phenoxy)-acetic acid]",< 500,< 500
"CN1CCC(c2ccccc2)(c2noc(-c3cc(Br)ccc3OCC(=O)O)n2)CC1 [Example D11, {4-Bromo-2-[3-(1-methyl-4-phenyl-piperidin-4-yl)-[1,2,4]oxadiazol-5-yl]-phenoxy}-acetic acid]",< 500,< 500
